# Measurements from ChEMBL document CHEMBL5608164, “Targeting kelch-like (KLHL) proteins: achievements, challenges and perspectives” (Eur J Med Chem, 2024).
# Starred links: 1 amine or outer side, 2 acyl side, 3 side chain; linkers in the order of their positions; H or OH if unused. Positions of bridges follow the written chain, without caps; N, C: chain ends. Residues, ends and D or L forms follow the SMILES beside them. mXylylene = c1cc(C[*:1])cc(C[*:2])c1
# Tests used:
# [1] = Inhibition of human Kelch-like protein extracted from Escherichia coli
# Kelch-like protein 20 = biological target: T1, Kelch-like protein 20 (Homo sapiens, UniProt Q9Y2M5); assay: Binding affinity to KLHL20 (unknown origin) assessed as dissociation constant by fluorescence polarization assay
# T1 sequence (Q9Y2M5 whole entry): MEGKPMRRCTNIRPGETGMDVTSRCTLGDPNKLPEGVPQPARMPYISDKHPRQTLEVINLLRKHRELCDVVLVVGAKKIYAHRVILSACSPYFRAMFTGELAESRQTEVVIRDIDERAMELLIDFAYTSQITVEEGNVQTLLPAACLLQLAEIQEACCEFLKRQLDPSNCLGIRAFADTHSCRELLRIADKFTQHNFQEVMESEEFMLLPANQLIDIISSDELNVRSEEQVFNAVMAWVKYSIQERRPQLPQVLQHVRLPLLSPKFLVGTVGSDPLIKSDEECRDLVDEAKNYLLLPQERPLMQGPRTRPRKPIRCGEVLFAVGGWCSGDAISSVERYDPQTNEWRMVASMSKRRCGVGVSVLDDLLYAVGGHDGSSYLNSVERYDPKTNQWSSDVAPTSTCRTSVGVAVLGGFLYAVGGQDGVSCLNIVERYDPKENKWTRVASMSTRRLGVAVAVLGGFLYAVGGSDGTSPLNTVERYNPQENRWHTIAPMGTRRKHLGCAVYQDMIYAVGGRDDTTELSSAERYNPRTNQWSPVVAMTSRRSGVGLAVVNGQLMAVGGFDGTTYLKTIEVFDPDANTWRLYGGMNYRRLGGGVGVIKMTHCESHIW
# Keap1/Nrf2 = Keap1/Nrf2 (Homo sapiens, UniProt Q14145); assay: Inhibition of Keap1-Nrf2 protein-protein interaction (unknown origin) by fluorescence polarization assay
# Kelch-like protein 3 = biological target: T2, Kelch-like protein 3 (Homo sapiens, UniProt Q9UH77); assay: Binding affinity to KLHL3 (unknown origin) assessed as dissociation constant by fluorescence polarization assay
# T2 sequence (Q9UH77 whole entry): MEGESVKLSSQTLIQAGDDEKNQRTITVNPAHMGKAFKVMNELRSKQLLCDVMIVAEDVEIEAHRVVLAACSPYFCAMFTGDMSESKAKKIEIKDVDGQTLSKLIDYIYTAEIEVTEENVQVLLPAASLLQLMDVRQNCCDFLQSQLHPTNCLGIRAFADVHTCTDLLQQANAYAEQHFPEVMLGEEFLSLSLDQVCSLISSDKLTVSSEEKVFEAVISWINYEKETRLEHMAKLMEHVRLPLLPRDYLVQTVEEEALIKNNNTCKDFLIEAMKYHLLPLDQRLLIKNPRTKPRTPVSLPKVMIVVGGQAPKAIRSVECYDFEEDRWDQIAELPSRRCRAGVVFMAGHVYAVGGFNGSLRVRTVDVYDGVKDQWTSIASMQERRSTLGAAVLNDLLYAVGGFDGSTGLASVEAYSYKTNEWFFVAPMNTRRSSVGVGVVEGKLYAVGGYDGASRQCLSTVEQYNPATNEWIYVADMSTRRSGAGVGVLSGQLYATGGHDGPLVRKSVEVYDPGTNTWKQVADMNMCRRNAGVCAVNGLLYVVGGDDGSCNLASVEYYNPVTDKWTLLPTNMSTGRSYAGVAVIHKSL
# Kelch-like protein 12 [2] = biological target: T3, Kelch-like protein 12 (Homo sapiens, UniProt Q53G59); assay: Binding affinity to KLHL12 (unknown origin) extracted from Escherichia coli BL21 Gold (DE3) assessed as dissociation constant by fluorescence polarization assay
# T3 sequence (Q53G59 whole entry): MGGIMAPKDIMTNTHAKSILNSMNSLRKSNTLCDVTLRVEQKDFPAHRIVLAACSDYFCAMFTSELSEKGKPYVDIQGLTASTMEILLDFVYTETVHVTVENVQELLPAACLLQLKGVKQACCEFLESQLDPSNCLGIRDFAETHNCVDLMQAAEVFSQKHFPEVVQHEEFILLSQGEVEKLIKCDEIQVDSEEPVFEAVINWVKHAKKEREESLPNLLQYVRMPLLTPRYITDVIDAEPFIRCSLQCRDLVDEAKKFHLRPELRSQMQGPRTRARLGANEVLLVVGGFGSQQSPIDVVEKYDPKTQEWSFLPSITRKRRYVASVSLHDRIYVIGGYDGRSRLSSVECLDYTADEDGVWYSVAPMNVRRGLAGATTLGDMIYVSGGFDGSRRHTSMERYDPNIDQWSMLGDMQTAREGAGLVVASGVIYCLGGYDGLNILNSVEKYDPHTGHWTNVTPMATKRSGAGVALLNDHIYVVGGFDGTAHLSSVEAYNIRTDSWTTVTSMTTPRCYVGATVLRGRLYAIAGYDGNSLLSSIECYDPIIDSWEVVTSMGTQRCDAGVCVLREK
# Kelch-like protein 12 [3] = biological target: T3, Kelch-like protein 12; assay: Binding affinity to KLHL12 (unknown origin) assessed as inhibition constant
# Sequence of Keap1/Nrf2 (Q16236 whole entry): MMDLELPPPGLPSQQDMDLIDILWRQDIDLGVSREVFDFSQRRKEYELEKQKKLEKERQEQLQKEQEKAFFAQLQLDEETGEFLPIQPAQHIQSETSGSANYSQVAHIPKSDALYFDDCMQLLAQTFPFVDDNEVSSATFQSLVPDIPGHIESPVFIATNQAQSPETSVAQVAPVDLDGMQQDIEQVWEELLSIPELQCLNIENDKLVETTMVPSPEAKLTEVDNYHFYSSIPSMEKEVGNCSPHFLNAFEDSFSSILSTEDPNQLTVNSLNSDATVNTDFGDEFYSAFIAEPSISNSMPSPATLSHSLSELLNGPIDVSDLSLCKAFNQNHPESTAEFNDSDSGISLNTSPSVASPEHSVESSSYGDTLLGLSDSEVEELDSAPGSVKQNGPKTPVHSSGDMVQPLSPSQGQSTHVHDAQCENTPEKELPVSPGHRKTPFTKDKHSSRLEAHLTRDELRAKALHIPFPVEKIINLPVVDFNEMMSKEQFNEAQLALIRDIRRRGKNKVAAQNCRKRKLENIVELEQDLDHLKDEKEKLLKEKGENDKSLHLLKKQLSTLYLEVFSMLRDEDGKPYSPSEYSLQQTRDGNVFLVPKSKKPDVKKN
# Sequence of Keap1/Nrf2 (Q14145 whole entry): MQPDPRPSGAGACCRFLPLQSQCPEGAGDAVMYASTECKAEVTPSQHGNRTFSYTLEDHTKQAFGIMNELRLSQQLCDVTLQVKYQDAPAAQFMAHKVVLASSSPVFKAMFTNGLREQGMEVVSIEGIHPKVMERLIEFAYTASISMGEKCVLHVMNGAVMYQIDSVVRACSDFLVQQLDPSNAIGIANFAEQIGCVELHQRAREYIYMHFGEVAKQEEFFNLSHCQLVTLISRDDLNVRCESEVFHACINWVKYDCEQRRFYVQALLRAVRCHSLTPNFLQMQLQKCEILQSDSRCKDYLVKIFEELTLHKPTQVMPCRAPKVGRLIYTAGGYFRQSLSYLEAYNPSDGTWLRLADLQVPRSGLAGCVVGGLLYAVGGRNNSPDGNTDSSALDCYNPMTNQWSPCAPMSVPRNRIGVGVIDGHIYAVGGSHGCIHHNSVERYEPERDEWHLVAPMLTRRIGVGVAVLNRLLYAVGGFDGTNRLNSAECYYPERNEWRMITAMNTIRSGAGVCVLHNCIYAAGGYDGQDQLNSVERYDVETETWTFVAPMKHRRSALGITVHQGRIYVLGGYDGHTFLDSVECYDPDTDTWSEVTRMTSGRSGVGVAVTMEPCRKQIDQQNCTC
molecule,measurement,setting,value
CC(C)C[C@H](NC(=O)[C@H](Cc1ccccc1)NC(=O)[C@H](CCC(=O)O)NC(=O)CNC(=O)[C@@H](NC(=O)[C@H](CCC(=O)O)NC(=O)[C@H](CCC(=O)O)NC(=O)[C@H](CC(=O)O)NC(=O)[C@@H](N)CC(C)C)[C@@H](C)O)C(=O)O,IC50,[1],20 nM
CC(C)C[C@@H]1NC(=O)[C@H](CC(=O)O)NC(=O)[C@@H]2CCCN2C(=O)[C@@H](N)CSCc2cccc(c2)CSC[C@@H](C(N)=O)NC1=O (H-CPDLC-NH2; linker 1-5 via mXylylene),Kd,Kelch-like protein 20,600 nM
Ac-DPSTGEL-OH,IC50,Keap1/Nrf2,34.4 µM
H-EPEEPEADQHQ-OH,Kd,Kelch-like protein 3,690 nM
H-PGAPPGRDLASVP-OH,Kd,Kelch-like protein 12 [2],15 µM
same,Ki,Kelch-like protein 12 [3],21 µM
